# Target: T1, Yak1 (Candida albicans, UniProt A0A1D8PH81)
# T1 construct: full-length, C-terminal 6xHis-3xFlag tag kept; both YAK1 alleles tagged and overexpressed in C. albicans; native purification on anti-Flag gel, eluted with 3xFlag peptide
# Test: ADP-Glo kinase assay with DYRKtide
# Assay type: biochemical
# Details: 10 µM ATP, 0.2 mg/mL DYRKtide, 2.5 mM MgCl2, HEPES-NaOH pH 7.2, 40 min; ATP site proposed by docking only
# T1 sequence (A0A1D8PH81 entry or part of it): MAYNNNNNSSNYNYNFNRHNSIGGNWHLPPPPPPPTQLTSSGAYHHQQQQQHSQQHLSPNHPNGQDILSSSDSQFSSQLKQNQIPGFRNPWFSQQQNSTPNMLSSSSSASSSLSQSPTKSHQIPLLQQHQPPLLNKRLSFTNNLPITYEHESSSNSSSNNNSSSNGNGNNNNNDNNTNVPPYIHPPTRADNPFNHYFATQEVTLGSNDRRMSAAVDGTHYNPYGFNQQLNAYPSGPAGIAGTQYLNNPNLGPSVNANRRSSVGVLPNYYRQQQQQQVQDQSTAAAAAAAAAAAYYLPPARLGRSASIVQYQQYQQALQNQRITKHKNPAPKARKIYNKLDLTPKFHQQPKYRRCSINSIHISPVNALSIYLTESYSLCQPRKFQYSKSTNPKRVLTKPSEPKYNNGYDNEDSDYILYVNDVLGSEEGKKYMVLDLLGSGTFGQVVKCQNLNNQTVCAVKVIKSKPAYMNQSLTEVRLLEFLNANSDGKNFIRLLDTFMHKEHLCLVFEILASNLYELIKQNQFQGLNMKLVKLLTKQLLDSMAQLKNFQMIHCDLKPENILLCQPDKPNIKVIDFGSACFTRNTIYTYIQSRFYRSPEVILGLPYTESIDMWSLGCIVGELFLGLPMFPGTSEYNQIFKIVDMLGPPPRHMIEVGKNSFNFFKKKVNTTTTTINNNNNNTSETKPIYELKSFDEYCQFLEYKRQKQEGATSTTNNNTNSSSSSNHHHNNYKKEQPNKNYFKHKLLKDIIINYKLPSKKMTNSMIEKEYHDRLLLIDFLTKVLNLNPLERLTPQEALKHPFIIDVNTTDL
row,SMILES,concentration-dependent inhibition
1,"CCOC(=O)c1nccc2c1[nH]c1ccccc12 [1-ECBC, 1-ethoxycarbonyl-β-carboline]","1-ECBC and harmine, a known β-carboline scaffold DYRK inhibitor, exhibited concentration-dependent inhibition of Yak1 activity"
2,COc1ccc2c(c1)[nH]c1c(C)nccc12 [harmine],1-ECBC and harmine inhibit Yak1 activity in a concentration-dependent manner

# Reference: paper PMC8536679, “A small molecule produced by Lactobacillus species blocks Candida albicans filamentation by inhibiting a DYRK1-family kinase” (Nature Communications, 2021)
